Our source for the Kd values is paper PMC7148433 (Biochemical Journal, 2020).

Each structure is given as a SMILES string.

The target of the experiment is T1, lipocalin-type prostaglandin D synthase (L-PGDS) (Homo sapiens, UniProt P41222).
T1 sequence (P41222 23-190): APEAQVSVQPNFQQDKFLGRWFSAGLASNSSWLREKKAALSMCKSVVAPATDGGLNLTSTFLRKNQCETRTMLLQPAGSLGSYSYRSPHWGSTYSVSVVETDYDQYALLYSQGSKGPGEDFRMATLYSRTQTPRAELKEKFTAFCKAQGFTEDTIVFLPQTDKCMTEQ
The experiment is described as follows: tryptophan fluorescence quenching. It counts as binding.

In general, Kd refers to the constant that tells how readily two partners part at equilibrium. Molecule `C=CC1=C(C)C2=Cc3c(C=C)c(C)c4[n]3[Fe][n]3c(c(C)c(CCC(=O)O)c3=CC3=NC(=C4)C(C)=C3CCC(=O)O)=CC1=N2` [heme] displayed a Kd of 40 nM.
